From patent US20150359866A1, “TREATMENT OF CERVICAL AND RELATED […] TOPICAL IMMUNOMODULATORS” (THE JOHNS HOPKINS UNIVERSITY, priority 2014, published 2015)

System: CIN2/3 lesions associated with HPV genotypes other than HPV16
Assay: Clinical trial of topical imiquimod on CIN 2/3 lesions (lesion regression)
Assay type: in vivo, human
Description: Treatment protocol. In an embodiment, patients are screened at their initial colposcopic evaluation for referral for evaluation of high grade pap smears. Immunocomptetent patients with biopsy-confirmed CIN2/3 which is HPV16 negative will be eligible for enrollment. Both treatment and control groups will be assessed for histologic diagnosis at week 15, change in cervical quantitative HPV viral load, safety, toxicity, tolerability, and for measures of local mucosal immune responses. Patients will be given imiquimod (5%) or vehicle at Day 0, week 4, and week 8 and then histological diagnosis is determined at week 15.
Imiquimod administration on the lesion at each vaccination. In an embodiment, patients received a total of three applications of imiquimod directly on the cervical lesion, one application at the time of each vaccination. One single use packet containing 250 mg of 5% imiquimod was used for each treatment. After insertion of a vaginal speculum, the cream is applied directly to the lesion by the PI, using a cotton-tipped applicator. The speculum is withdrawn, and a tampon is placed as a medication barrier. Patients will be instructed to leave the tampon in place for about 4 to 6, and no more than 10 hours. […]
Clinical trial results. […] Subjects were monitored for mucosal irritation. […]

## CC(C)Cn1cnc2c(N)nc3ccccc3c21 [imiquimod, 1-(2-methylpropyl)-1H-imidazo[4,5-c]quinolin-4-amine]
FIG. 4, untreated rate in same timeframe 30-40%
  rate of regression relative to untreated HPV16-negative CIN2/3 patients: nearly double
HPV16-negative subjects, 12.5 mg imiquimod in 250 mg cream applied to the cervical lesion three times at four-week intervals, assessed eight weeks after third application, 10/16 subjects
  rate of regression of CIN2/3 lesions: 62.5%
